Among the test systems are RXF 393; MDA-MB-435; IGROV-1; RPMI-8226; DU-145; HT-29; SF-268; KM12; COLO 205; Hs-578T; SK-MEL-28; HL-60; OVCAR-4; SK-MEL-5; BT-549; A498; OVCAR-5; PC-3; HOP-92.
Holding throughout (experiment): NCI anticancer screen, dose series, 48 h

SMILES strings stand for the structures.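 Five compound concentrations were applied to cells in 96-well plates for 48 hours; endpoints were derived by simple linear interpolation of the resulting dose-response curve. Here, GI50 denotes the concentration required for 50% inhibition of growth.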 The source made the active and inactive calls. Cut-off read from the data, not from the text of the source: active = GI50 up to about 1.1 µM and inactive = higher.

With `CC1(Cc2cc3c(cc2C2(c4ccc([N+](=O)[O-])cc4)OCCO2)OCO3)OCCO1`, the GI50 is 86.1 µM (inactive) in the test on RXF 393; 98.2 µM (inactive) with MDA-MB-435; 51.1 µM (inactive) in the test on IGROV-1; 27.3 µM (inactive) in the test with RPMI-8226; > 100 µM (inactive) with DU-145; > 100 µM (inactive) with HT-29. The GI50 in the test on SF-268 is > 100 µM (inactive); with KM12 it was 72.3 µM (inactive); in the test on COLO 205, 67.6 µM (inactive); with Hs-578T, 71.1 µM (inactive); with SK-MEL-28, > 100 µM (inactive); with HL-60, > 100 µM (inactive). In addition, the GI50 in the test with OVCAR-4 was 50.2 µM (inactive); with SK-MEL-5, 41.7 µM (inactive); in the test with BT-549, 29.6 µM (inactive); in the test on A498, > 100 µM (inactive); in the test on OVCAR-5, > 100 µM (inactive); in the test with PC-3, 47.2 µM (inactive).
With `COc1ccccc1OCC(=N/NC(=O)c1ccncc1)/N=C/c1cccnc1`, the GI50 with RXF 393, in the test with HOP-92, with MDA-MB-435, in the test with IGROV-1, with RPMI-8226 and in the test with DU-145 was > 100 µM (inactive) each time. Also, the GI50 with HT-29, in the test on SF-268, in the test with KM12, in the test on COLO 205, with Hs-578T and in the test with SK-MEL-28 was > 100 µM (inactive) each time. Besides, the GI50 in the test with HL-60, in the test with OVCAR-4, in the test on BT-549, in the test on A498, in the test on OVCAR-5 and in the test with PC-3 was > 100 µM (inactive) in each case.
For `CC(=O)CCC1(C(=O)OCC(C)C)CCCC1=O` (stereo unspecified), the GI50 was > 100 µM (inactive) in the test on RXF 393; 90.6 µM (inactive) in the test with HOP-92; > 100 µM (inactive) in the test with MDA-MB-435; > 100 µM (inactive) with IGROV-1; > 100 µM (inactive) with DU-145; > 100 µM (inactive) in the test with HT-29. The GI50 with SF-268, in the test on KM12, with COLO 205, with Hs-578T, in the test with SK-MEL-28 and with HL-60 was > 100 µM (inactive) each time. In addition, the GI50 in the test with OVCAR-4, with SK-MEL-5, in the test on BT-549, in the test on OVCAR-5 and in the test with PC-3 was > 100 µM (inactive) in each case.
For `Cc1ccc2c(=O)c(C(=O)NNC(=S)NC3CCCCC3)c[nH]c2n1`, the GI50 in the test with RXF 393 was > 100 µM (inactive); in the test with MDA-MB-435 it was 30.1 µM (inactive); in the test on IGROV-1, 35.6 µM (inactive); in the test on RPMI-8226, 42.8 µM (inactive); in the test with DU-145 it was > 100 µM (inactive); in the test on HT-29, 53.1 µM (inactive). For the same compound, the GI50 in the test on SF-268 is 96.8 µM (inactive); in the test with KM12, 56.8 µM (inactive); with COLO 205 it was 64.6 µM (inactive); in the test with Hs-578T, 64.1 µM (inactive); in the test with SK-MEL-28, 77.8 µM (inactive); with HL-60, 46.9 µM (inactive). Moreover, the GI50 was 78.9 µM (inactive) in the test on OVCAR-4; 33.7 µM (inactive) with SK-MEL-5; 71.3 µM (inactive) in the test with BT-549; > 100 µM (inactive) with A498; > 100 µM (inactive) with OVCAR-5; 45.4 µM (inactive) in the test on PC-3.
Turning to `CC1C2CC(CC(=O)N2)C1(C)C` (stereo unspecified), the GI50 in the test with RXF 393, in the test with HOP-92, in the test with MDA-MB-435, with IGROV-1, with DU-145 and in the test with HT-29 was > 100 µM (inactive) each time. For the same compound, the GI50 in the test with SF-268, in the test with KM12, in the test on COLO 205, with Hs-578T, in the test with SK-MEL-28 and with HL-60 was > 100 µM (inactive) throughout. Moreover, the GI50 in the test on OVCAR-4, in the test on SK-MEL-5, with BT-549, with A498, in the test with OVCAR-5 and in the test on PC-3 was > 100 µM (inactive) throughout.
Turning to `N#Cc1c2c(c(N)oc1=O)C(c1ccccc1)CC(=O)N2` (stereo unspecified), the GI50 with RXF 393, in the test on HOP-92, with MDA-MB-435, with IGROV-1, with RPMI-8226 and with DU-145 was > 100 µM (inactive) in each case. The GI50 in the test on HT-29, in the test on SF-268, in the test on KM12, in the test on COLO 205, with Hs-578T and in the test with SK-MEL-28 was > 100 µM (inactive) throughout. In addition, the GI50 with HL-60, in the test on OVCAR-4, with SK-MEL-5, in the test with BT-549, with OVCAR-5 and in the test on PC-3 was > 100 µM (inactive) each time.
For the compound `NNC(=O)c1nnn(N)c1S`, the GI50 in the test on RXF 393, in the test on MDA-MB-435, with IGROV-1, with RPMI-8226, with DU-145 and in the test with HT-29 was > 100 µM (inactive) each time. Besides, the GI50 in the test on SF-268 was > 100 µM (inactive); in the test with KM12, 13.5 µM (inactive); in the test with COLO 205 it was > 100 µM (inactive); with Hs-578T it was > 100 µM (inactive); in the test with SK-MEL-28, > 100 µM (inactive); in the test on HL-60 it was 1 µM (active). Moreover, the GI50 in the test with OVCAR-4, in the test with SK-MEL-5, with BT-549, in the test on A498, in the test with OVCAR-5 and in the test with PC-3 was > 100 µM (inactive) in each case.
`COc1cc([N+](=O)[O-])c(OC)c2c(Nc3ccc(S(=O)(=O)O)c4cc(S(=O)(=O)O)cc(S(=O)(=O)O)c34)cc(C)nc12`: the GI50 with RXF 393, in the test on MDA-MB-435, with IGROV-1, in the test on DU-145, in the test with HT-29 and in the test with SF-268 was > 100 µM (inactive) in each case. Also, the GI50 in the test on KM12, in the test on COLO 205, in the test with Hs-578T, in the test on SK-MEL-28, with HL-60 and in the test with SK-MEL-5 was > 100 µM (inactive) throughout. The GI50 in the test on BT-549, in the test with A498, in the test with OVCAR-5 and in the test with PC-3 was > 100 µM (inactive) each time.

Values taken from ChEMBL document CHEMBL1201862, “PubChem BioAssay data set” (2004).
